Data as given in patent US20260232662A1, “MIR-124 INDUCER, AND PREPARATION METHOD THEREFOR AND USE THEREOF” (NANJING SYNNOCARE PHARMACEUTICAL TECHNOLOGY CO., LTD., priority 2023, published 2026).

Tests used:
miR-124 = assay: Induction of miR-124 expression in PBMC cells (qPCR); type: cell-based; conditions: Homo sapiens, 72 h, 0.1 μM compound, human PBMCs stimulated with PMA/ionomycin, miR-191 reference gene, read-out: miR-124 expression, Fold change vs DMSO
Outline: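 Human PBMCs (3.0*10^6 cells/well) were stimulated with PMA 10 ng/mL plus ionomycin 200 ng/mL for 48 h, then given compound at 0.1 μM final for 72 h. miR-124 was measured by RT-qPCR against miR-191 as reference gene. Expression is relative to DMSO control.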

[1] = In vivo pharmacokinetic evaluation in mice; conditions: mouse; male ICR mice, po, 10 mg/kg, plasma
Method: The compound was administered orally (p.o.) at a dose of 10 mg/kg. The test formulation was prepared at a final concentration of 0.4 mg/mL in 5% DMSO+45% PEG400+50% aqueous solution or suspension. Male ICR mice (9 per group) were sampled at three discontinuous time points (n=3 mice/time point). Approximately 80 μL of blood was collected via orbital or cardiac puncture at 5 min, 15 min, 30 min, 1 h, 2 h, 4 h, 8 h, and 24 h post-dose. All whole blood samples were collected in EDTA K2-containing tubes. After centrifugation at 4° C. (4000 rpm, 10 min), plasma was collected and stored below −40° C. for subsequent analysis. Compound concentrations in plasma were determined by liquid chromatography-tandem mass spectrometry (LC-MS/MS), and pharmacokinetic parameters were derived from the plasma concentration-time curves.

DSS-induced IBD in mice = assay: Preventive and therapeutic effects on DSS-induced inflammatory bowel disease (IBD) in mice; type: in vivo; conditions: for colon length as % of normal control values / Total Disease Activity Index (DAI) Scores / total DAI scores / Colon length: 40 mg/kg p.o. q.d.; for colon length as % of normal control values: model group 77.32%; for body weight loss percentage: day 10, 40 mg/kg p.o. q.d., female C57BL/6 mice, 2% DSS; for Total Disease Activity Index (DAI) Scores / total DAI scores: final day; for Total Disease Activity Index (DAI) Scores / Colon length: mean ± S.E.M.; for Total Disease Activity Index (DAI) Scores: model group 14.50; for total DAI scores: model group 14.5 points; for Colon length: last experimental day, normal control 6.44, model group 4.98
Source text: This study evaluated the preventive and therapeutic effects of the compounds of the present invention on dextran sulfate sodium (DSS)-induced IBD in mice. The experiment utilized female C57BL/6 mice (purchased from Beijing Vital River Laboratory Animal Technology Co., Ltd.) to establish the DSS-induced IBD model.
Female C57BL/6 mice (6-8 weeks old) were purchased from Beijing Vital River Laboratory Animal Technology Co., Ltd. Upon arrival, the mice were housed in individually ventilated cages (IVC) under specific pathogen-free (SPF) conditions, with 2-6 mice per cage. They were provided with ad libitum access to food and water and maintained at a temperature of 20-26° C. (68-79° F.), relative humidity of 40-70%, and a 12-hour light/dark cycle (lights on from 08:00 to 20:00). After a 7-day acclimatization period, experiments were initiated.
Test compounds and ABX464 vehicle: 5% DMSO+10% Solutol HS-15+85% saline, stored at 4° C.
DSS solution: 2% (w/v) DSS in autoclaved drinking water, prepared fresh before use.
The mice were randomly allocated into eight groups according to body weight: normal control group (negative control), model group (DSS group), ABX464 treatment group, test compound groups (administered with Compounds 19, 43, 59, 84, and 89 of the present invention at 40 mg/kg, p.o., q.d.)
Following a 7-day acclimation period, the model group and compound treatment groups were administered 2% DSS aqueous solution ad libitum for 7 days starting from Day 0, followed by 3 days of normal water consumption. All groups received daily oral gavage of their respective vehicles or test compounds for 10 consecutive days beginning on the trial commencement date. During the experimental period, body weight changes in mice were monitored and recorded daily, the Disease Activity Index (DAI) was scored each day with the total score calculated on the final day, and on the last experimental day all animals were humanely euthanized followed by colon collection and length measurement.
The experimental data were expressed as mean±standard error of the mean (mean±S.E.M.). Statistical analysis was performed using GraphPad Prism or SPSS software with appropriate statistical methods. A value of P<0.05 was considered statistically significant.

AUC(0-t) [1] [ng·h/mL] | Cmax [1] [ng/mL] | Tmax [1] [h] | half-life [1] [min] | Structure (SMILES) | fold induction at 0.1 µM (miR-124) | colon length as % of normal control values (DSS-induced IBD in mice) [%] | body weight loss percentage (DSS-induced IBD in mice) [%] | Total Disease Activity Index (DAI) Scores (DSS-induced IBD in mice) | total DAI scores (DSS-induced IBD in mice) [points] | Colon length (DSS-induced IBD in mice) [cm] | preventive and therapeutic effects on DSS-induced IBD (body weight, DAI, colon length) relative to ABX464 (DSS-induced IBD in mice; further experiments, figures not given)
1680 | 348 | 2 | 232 | Fc1cc(Nc2nc3c(F)cccc3n3ccnc23)ccc1OC(F)(F)F [Compound 43] | 18.9 | 99.69 | 2.22 | 10.03 | 10.03 | 6.42 | 
1860 | 454 | 2 | 208 | FC(F)(F)c1ccc(NC2=Nc3c(Cl)cc(Cl)cc3N3CCN=C23)cc1 [Compound 89] | 24.3 | 99.07 | 1.85 | 10.33 | 10.33 | 6.38 | 
3240 | 378 | 2 | 183 | FC(F)(F)Oc1ccc(Nc2nc3cc(Cl)ccc3n3ccnc23)cc1 [Compound B7, 7-chloro-N-(4-(trifluoromethoxy)phenyl)imidazolo [1,2-a]quinoxalin-4-amine] | 32 |  |  |  |  |  | outperformed the reference drug ABX464
